From US8410175B2, “Anticancer effect enhancer” (Nippon Kayaku Kabushiki Kaisha, priority 2004, dated 2013) come the findings set out here.

The subject of experiment [1] is Murine Lewis lung carcinoma (LLC) cells. Kind of experiment: Murine lung cancer model, tumor volume growth. It is filed as in vivo. Also noted: dose or concentration left out as unconfirmed. The conditions noted are these: LLC s.c. in C57BL6 mice; two weeks. Here is the method: Tumor volume was calculated as 0.5×{tumor length (mm)}[…]{tumor width (mm)}^2. The […] was calculated by student t-test.
(§1) Murine Lewis lung carcinoma (LLC) cells, lung adenocarcinoma cells, were obtained from the Tohoku University Cell Resource Center for Biomedical Research and were incubated with DMEM plus 10% fetal bovine serum until cell proliferation was sufficient to perform the experiments. The LLC cells were adjusted to concentrations of 2×10^5 cells/100 μl with phosphate buffer saline (PBS), and were inoculated Six-week-old male C57BL6 mice purchased from Charles River Japan, Inc. (Tokyo, Japan) and Clea Japan, Inc. (Tokyo, Japan) subcutaneously (2×10^5 cells/100 μl/mouse) at the right hypochondrium. Mice were maintained under specific-pathogen-free conditions, and provided with sterile food and water. When transplanted tumors grew to approximately 100 mm^3 in tumor volume, animals were equally divided into four groups (Control group, n=6; C, NO donor group, n=6; N, Chemotherapy group, n=6; CTX, and NO plus chemotherapy group, n=6; N+CTX). Tumor volume was calculated as 0.5×{tumor length (mm)}×{tumor width (mm)}^2. […]

The subject of experiment [2] is Colon 26 cells, murine colon cancer cells. Kind of experiment: Murine colon cancer model, tumor volume growth. The experiment is classed as in vivo. Also noted: dose or concentration left out as unconfirmed. Conditions: colon 26 s.c. in BALB/c mice; two weeks. Here is the method:
Tumor volume was calculated as 0.5×{tumor length (mm)}×{tumor width (mm)}^2. The P value was calculated by student t-test.
as §1, with “Colon 26” for “Murine Lewis lung carcinoma (LLC)”, “murine colon cancer” for “lung adenocarcinoma”, “RPMI 1640” for “DMEM”, “colon 26” for “LLC”, “female BALB/c” for “male C57BL6”, “subcutanously” for “subcutaneously”

Regarding `O=[N+]([O-])OCC(CO[N+](=O)[O-])O[N+](=O)[O-]` [NO donor, nitroglycerin], the murine tumor volume result in experiment [1] and in experiment [2] was “rapid tumor growth” each time.
